Assay results: patent publication US6500827B2, “Drug combinations” (Pharmacia & Upjohn Company, priority 1998, dated 2002)

Assays:
[1] = tolerability and safety; conditions: in vivo
Experimental: It is more commonly provided in dosages of from 1 to 20 mg per patient per day. […] Other adverse reactions are possible. […] Both compounds may be administered by any suitable method including a convenient oral dosage form. A preferred method is oral dosing twice a day.

[2] = tested on: I-adrenerigic receptors; assay: interaction with I-adrenerigic receptors; assay type: binding
[3] = tested on: norepinephrine uptake; conditions: compared with classical tricyclic antidepressants
Source text: (§1) Leonard-BE, “Noradrenaline in basic models of depression.” European-Neuropsychopharnacol. April 1997; 7 Suppl 1: S11-6; discussion S71-3.

[4] = tested on: monoamine oxidase (MAO)
Source text: as §1

[5] = tested on: serotonin uptake
Source text: as §1

[6] = tested on: dopamine uptake
Source text: as §1

[7] = tested on: 8-OH-DPAT hypothermia; conditions: in vivo; cited from earlier work
[8] = tested on: patients with a DSM-III-R diagnosis of Obsessive Compulsive Disorder; assay: trial in patients with Obsessive Compulsive Disorder; assay type: in vivo, human; conditions: of 10 OCD patients, 6 mg first week then 8 mg, 3 to 4 weeks
Source text: This study is provided to illustrate the usefulness of using reboxetine as a treatment for OCD and the invention described herein should not be considered limited by this example.

[9] = tested on: muscarinic cholinergic receptors; assay: interaction with muscarinic cholinergic receptors; assay type: binding

SMILES	tolerability / safety [1]	interaction with I-adrenerigic receptors [2]	inhibition of the reuptake of noradrenaline [3]	monoamine oxidase (MAO) inhibitory activity [4]	serotonin uptake inhibitory activity [5]	dopamine uptake inhibitory activity [6]	effect in the 8-OH-DPAT hypothermia test [7]	patients judged minimally improved at CGI last assessment [8]	patients judged much improved at CGI last assessment [8]	patients judged very much improved at CGI last assessment [8]	patients unchanged at CGI last assessment [8]	interaction with muscarinic cholinergic receptors [9]
CC(C)NCC(O)COc1cccc2[nH]ccc12 (stereo not drawn) [Pindolol, 1-(1H-Indol-4-yloxy)-3-[(1-methylethyl)amino]-2-propanol]	fairly safe	–	–	–	–	–	–	–	–	–	–	–
CCOc1ccccc1OC(c1ccccc1)C1CNCCO1 (stereo not drawn) [reboxetine]	–	without showing any appreciable interaction	inhibitory properties of classical tricyclic antidepressants	devoid	only marginal	no dopamine uptake inhibitory activity	ineffective	2	4	one	3	without showing any appreciable interaction
